Results from PubChem BioAssay (NCI).
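How tested: cells in 96-well plates exposed to compound for 48 hours at five concentrations. Abbreviation: GI50, concentration required for 50% inhibition of growth. TGI marks complete inhibition of growth.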

Columns and labels:
Test in all cases: NCI-60 cell line screen, 48 h
EKVX NSCLC = tested on: EKVX NSCLC
HL-60(TB) leukemia = tested on: HL-60(TB) leukemia
HT29 colon = tested on: HT29 colon
K-562 leukemia = tested on: K-562 leukemia
LOX IMVI melanoma = tested on: LOX IMVI melanoma
M14 melanoma = tested on: M14 melanoma
RXF 393 renal = tested on: RXF 393 renal
SF-539 CNS = tested on: SF-539 CNS
SK-OV-3 ovarian = tested on: SK-OV-3 ovarian
SN12C renal = tested on: SN12C renal
SNB-19 CNS = tested on: SNB-19 CNS
UACC-257 melanoma = tested on: UACC-257 melanoma

Row | Structure (SMILES) | TGI (EKVX NSCLC) [µM] | TGI (HL-60(TB) leukemia) [µM] | TGI (HT29 colon) [µM] | TGI (K-562 leukemia) [µM] | TGI (LOX IMVI melanoma) [µM] | TGI (M14 melanoma) [µM] | TGI (RXF 393 renal) [µM] | TGI (SF-539 CNS) [µM] | TGI (SK-OV-3 ovarian) [µM] | TGI (SN12C renal) [µM] | TGI (SNB-19 CNS) [µM] | TGI (UACC-257 melanoma) [µM] | GI50 (EKVX NSCLC) [nM] | GI50 (HL-60(TB) leukemia) [µM] | GI50 (HT29 colon) [nM] | GI50 (K-562 leukemia) [nM] | GI50 (RXF 393 renal) [nM] | GI50 (SF-539 CNS) [nM] | GI50 (SK-OV-3 ovarian) [nM] | GI50 (UACC-257 melanoma) [nM]
1 | O=C(c1ccc2ccccc2c1)N(Cc1cccnc1)C(=S)N(Cc1cccnc1)C(=O)c1ccc2ccccc2c1 | 77.1 | > 100 | 81.2 | > 100 | 37 | 55 | 43.9 | > 100 | > 100 | > 100 | > 100 | 48.7 |  |  |  |  |  |  |  | 
2 | C=C1CC[C@@H](Br)C(C)(C)[C@]12CCC(C)(O)C(Cl)C2 (some centres not stated) | 40.2 | 42.2 | 33.4 | 49.4 | 35.2 |  | 34.2 |  | 37.4 | 30 | 43.4 | 32.4 |  |  |  |  |  |  |  | 
3 | CCOC(=O)[C@H]1Nc2c(cccc2[N+](=O)[O-])[C@H]2OCC[C@@H]12 | > 100 |  | > 100 | > 100 | > 100 | > 100 | > 100 | > 100 |  | > 100 | > 100 | 86.1 |  |  |  |  |  |  |  | 
4 | CC[C@H](Nc1nc(N)nc(C)c1C#N)c1nc2cccc(NCc3ccc(C(=O)NO)cc3)c2c(=O)n1-c1ccccc1 | 6.84 | > 100 | 4.88 | > 100 |  |  | 3.05 | 3.63 | 5.03 |  |  | 6.2 | 2100 | 3.04 | 1820 | 2440 | 1210 | 1560 | 2050 | 1940
5 | CC(=O)O[C@H]1CC[C@@]2(C)C(=CC[C@@H]3[C@@H]2CC[C@]2(C)Nc4c(cnn4S(C)(=O)=O)C[C@@H]32)C1 |  | 71.3 | 57 | > 100 |  | 75.2 | 92.2 |  | > 100 | > 100 | > 100 |  |  |  |  |  |  |  |  | 
6 | O=C(O)c1ccc([N+]2=Cn3c(nc4ccccc43)C2)cc1 | > 100 | > 100 | > 100 | > 100 | > 100 | > 100 | > 100 |  | > 100 | > 100 | > 100 | > 100 |  |  |  |  |  |  |  | 
7 | O=C1C(c2c(O)[nH]c3ccc(S(=O)(=O)O)cc23)=Nc2ccc(Br)cc21 | > 100 | > 100 | > 100 | > 100 | > 100 | > 100 | > 100 |  | > 100 | > 100 | > 100 | > 100 |  |  |  |  |  |  |  | 
8 | C/C(=N\Oc1cc(Cl)ncn1)c1ccccn1 | > 100 |  | > 100 | > 100 | > 100 | > 100 | 95.7 | > 100 | > 100 | > 100 | > 100 | > 100 |  |  |  |  |  |  |  | 
9 | CCC1(CCSC(=N)N)C(=O)NC(=O)NC1=O | > 100 | > 100 | > 100 | > 100 | > 100 | > 100 | > 100 | > 100 | > 100 | > 100 | > 100 | > 100 |  |  |  |  |  |  |  | 
10 | O=C(O)CCSCc1ccc(I)cc1 | > 100 | > 100 | > 100 | > 100 | > 100 | > 100 | > 100 |  | > 100 | > 100 | > 100 | > 100 |  |  |  |  |  |  |  | 
11 | CCCCCCCCCCCCCCCC(=O)OCC1CCCN2CCCCC12 (configuration not stated) | > 100 | > 100 | > 100 | > 100 | > 100 | > 100 | > 100 | > 100 | > 100 | > 100 | > 100 | > 100 |  |  |  |  |  |  |  | 
12 | O=C1Nc2ccccc2S/C1=C\c1cccc(C(F)(F)F)c1 | > 100 | > 100 | > 100 | > 100 | > 100 | > 100 | > 100 | > 100 | > 100 | > 100 | > 100 | > 100 |  |  |  |  |  |  |  | 
13 | CCOC(=O)CC1(O)CCCCC1(Sc1ccc(C)cc1)Sc1ccc(C)cc1 (configuration not stated) | > 100 | > 100 | > 100 | > 100 | > 100 | > 100 | > 100 | > 100 | > 100 | > 100 | > 100 | > 100 |  |  |  |  |  |  |  | 
14 | O=C(CCl)NC(Cc1ccc(F)cc1)C(=O)O (configuration not stated) | > 100 | > 100 | > 100 | > 100 | > 100 |  |  | > 100 | > 100 | > 100 | > 100 | > 100 |  |  |  |  |  |  |  | 
15 | Cc1ccc(C[P+]2(c3ccccc3)CCCCC2)cc1 | > 100 | 33.6 | > 100 | > 100 | > 100 | > 100 | > 100 | > 100 | > 100 | > 100 | > 100 | 32.6 |  |  |  |  |  |  |  | 
16 | CC(=O)OC/C=C/Cn1ncc(=O)[nH]c1=O | > 100 | > 100 | > 100 | > 100 | > 100 | > 100 | > 100 | > 100 |  | > 100 | > 100 |  |  |  |  |  |  |  |  | 
17 | CC(C)OC(=O)C1=C(O)c2ccccc2S(=O)(=O)N1 | > 100 |  | > 100 | > 100 | > 100 | > 100 |  | > 100 | > 100 | > 100 | > 100 | > 100 |  |  |  |  |  |  |  | 
18 | N=c1nc2n(cc1F)[C@@H]1O[C@H](CO)[C@@H](O)[C@@H]1O2 | > 100 | > 40.9 | > 100 | > 100 | > 100 | 7.81 | > 56.2 | > 77.2 | > 100 | > 100 | > 100 | > 100 |  |  |  |  |  |  |  | 
19 | O=C1Nc2ccccc2S/C1=C\c1ccccc1C(F)(F)F | > 100 | > 100 | > 100 |  | > 100 | > 100 | > 100 | > 100 | > 100 | > 100 | > 100 | > 100 |  |  |  |  |  |  |  | 
20 | O=[As](O)(O)c1ccc(N=Nc2ccc([As](=O)(O)O)cc2)cc1 | > 100 | > 100 | > 100 | > 100 | > 100 | > 100 | > 100 |  |  | > 100 | > 100 | > 100 |  |  |  |  |  |  |  | 
21 | Cc1ccc([N+](=O)[O-])cc1NC(=O)C(=O)C(C(=O)c1ccccc1F)C1OC(=O)c2ccccc21 (configuration not stated) | > 100 | > 100 | > 100 | > 100 | 90.3 | > 100 | 53.9 | 67.3 | > 100 | > 100 | 75.5 | > 100 |  |  |  |  |  |  |  | 
22 | Oc1c2c(c3c4c1N=CC=4CCN=3)-c1c(Br)cc(Br)cc1CCN2 | 17.4 | 4.09 | 7.66 | 7.57 | 4.06 |  | 20.2 | 9.46 | 24.9 | 5.86 | > 35.6 | 2.86 |  |  |  |  |  |  |  | 
23 | O=[N+]([O-])c1ccc2c(c1)Nc1c3ccccc3nc3cccc-2c13 | 48.7 | > 23.1 | > 51.6 | > 19.7 | 6.67 | 16.9 | 32.9 | 44.3 | 8.41 | > 80 | 47.6 | 47.9 |  |  |  |  |  |  |  | 
24 | O=C(N/C(=C\c1cccc([N+](=O)[O-])c1)c1nc2[nH]c(=S)[nH]c(=O)c2[nH]1)c1ccccc1 | > 100 | > 100 | > 100 | > 100 | > 100 | > 100 | > 100 | > 100 | > 100 | > 100 | > 100 | > 100 |  |  |  |  |  |  |  | 
25 | Nc1nncc2c1ccn2C1OC(CO)C(O)C1O (configuration not stated) | > 100 | > 100 | > 100 | > 100 | > 100 | > 100 | > 100 | > 100 | > 100 | > 100 | > 100 | > 100 |  |  |  |  |  |  |  | 
26 | Cc1ccc(S(=O)(=O)N/N=c2\c(C)c(C3=NS(=O)(=O)c4cc(S(N)(=O)=O)c(Cl)cc4N3)oc3c(Cl)cc(Cl)cc23)cc1 | > 100 | > 100 | > 100 | > 100 | > 100 | > 100 | > 100 | > 100 | > 100 | > 100 | > 100 | > 100 |  |  |  |  |  |  |  | 
27 | Nc1c(-c2nc3ccccc3o2)sc(=S)n1-c1ccc(Cl)cc1 | > 100 | > 100 | > 100 | > 100 |  | > 100 | 66.8 | 23.9 | 33.2 | > 100 | 39.5 | 95.6 |  |  |  |  |  |  |  | 
28 | O=C(O)c1cc2cc(c1)N=Cc1ccccc1OCc1cccc(n1)COc1ccccc1C=N2 | > 25 | > 25 | > 25 | > 25 |  | > 25 | > 25 | > 25 | > 25 | > 25 | > 25 | > 25 |  |  |  |  |  |  |  | 
29 | Cc1cc2c(cc1C)[n+](=O)c(C#N)c(Cl)n2[O-] | 28.5 | 84.3 | 19.7 | > 100 | 39.2 |  | 26.4 | 28.2 | 70.5 | 28.3 | > 100 | 27 |  |  |  |  |  |  |  | 
